From ChEMBL document CHEMBL3608283, “Pyrrolopyridine or Pyrazolopyridine Derivatives” (ACS Med Chem Lett, 2015)
Where a chain is given by its changes, count along the chain named.

Key:
[1] = target: T1, Muscarinic acetylcholine receptor M1 (Homo sapiens, UniProt P11229); experiment: Positive allosteric modulation of human muscarinic M1 receptor expressed in CHO cells assessed as basal and acetylcholine-stimulated Ca2+ level by FLIPR assay; type: functional, cell-based
T1 sequence (P11229 whole entry): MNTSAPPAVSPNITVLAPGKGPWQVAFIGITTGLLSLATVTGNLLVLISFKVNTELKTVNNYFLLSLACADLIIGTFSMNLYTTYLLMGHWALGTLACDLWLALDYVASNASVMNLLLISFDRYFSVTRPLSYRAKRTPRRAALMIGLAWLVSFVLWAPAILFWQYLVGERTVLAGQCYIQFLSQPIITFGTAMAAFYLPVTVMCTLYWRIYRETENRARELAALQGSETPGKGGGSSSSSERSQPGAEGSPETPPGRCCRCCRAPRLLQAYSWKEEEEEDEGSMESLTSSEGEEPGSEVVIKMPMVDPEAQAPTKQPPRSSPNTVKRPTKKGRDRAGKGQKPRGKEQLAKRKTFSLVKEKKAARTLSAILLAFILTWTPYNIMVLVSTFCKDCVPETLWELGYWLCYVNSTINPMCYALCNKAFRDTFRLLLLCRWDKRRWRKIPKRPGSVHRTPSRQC

[2] = target: T2, Muscarinic acetylcholine receptor M1 (Rattus norvegicus, UniProt P08482); experiment: Positive allosteric modulation of rat muscarinic M1 receptor expressed in CHO cells assessed as basal and acetylcholine-stimulated Ca2+ level by FLIPR assay; type: functional, cell-based
T2 sequence (P08482 whole entry): T1 sequence (P11229 whole entry) with A5V, T254S, P309S, R320K, A337G, I413V

SMILES	EC50 [1] [nM]	EC50 [2] [nM]
Cn1cc(-c2ccc(Cn3cc(C(=O)N[C@H]4COCC[C@@H]4O)c4ncccc43)cc2)cn1	11.1	13.8
Cn1cc(-c2ccc(Cn3cc(C(=O)N[C@H]4CCOC[C@@]4(C)O)c4ncccc43)c(F)c2)cn1	47.9	63.2
CNC(=O)c1ccc(Cn2cc(C(=O)N[C@H]3COCC[C@@H]3O)c3ncccc32)cc1	9.1	18
Cn1ncc2cc(Cn3cc(C(=O)N[C@H]4COCC[C@@H]4O)c4ncccc43)ccc21	71.5	162
Cn1cc(-c2ccc(Cn3cc(C(=O)N[C@H]4COCC[C@@H]4O)c4ncccc43)cc2F)cn1	15.5	18
Cn1cc(-c2ccc(Cn3cc(C(=O)N[C@H]4COCC[C@@H]4O)c4ncccc43)cn2)cn1	34.8	71.1
Cn1cc(-c2ccc(Cn3cc(C(=O)N[C@H]4CCOC[C@@H]4O)c4ncccc43)c(F)c2)cn1	28.5	58.6
